# Molecular target: T1, CCR(9) (Homo sapiens, UniProt P51686)
# T1 construct: MOLT-4 cells were collected by centrifugation at 400×g at room temperature, then suspended at 50 million/ml in human serum; host or cells: MOLT-4
# T1 sequence (P51686 1-369): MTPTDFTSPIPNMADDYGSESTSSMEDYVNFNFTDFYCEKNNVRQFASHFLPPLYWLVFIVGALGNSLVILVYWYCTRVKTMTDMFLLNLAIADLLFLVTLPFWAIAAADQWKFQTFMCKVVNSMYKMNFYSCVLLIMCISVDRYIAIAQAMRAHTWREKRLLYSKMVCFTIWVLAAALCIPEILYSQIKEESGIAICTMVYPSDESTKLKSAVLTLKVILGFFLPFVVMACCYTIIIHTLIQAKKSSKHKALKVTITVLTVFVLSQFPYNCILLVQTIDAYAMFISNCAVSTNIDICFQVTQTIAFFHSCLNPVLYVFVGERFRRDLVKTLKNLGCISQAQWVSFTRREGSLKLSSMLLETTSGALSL
# Assay: Serum chemotaxis assay (MOLT-4 cells, TECK-induced migration, ChemoTX)
# Type: cell-based
# Conditions: MOLT-4 cells in human serum, migration to recombinant human TECK, 90 minutes at 37° C.
# Method: MOLT-4 cells were obtained from the American Type Culture Collection (Manassas, VA) and cultured in RPMI tissue culture medium supplemented with 10% fetal calf serum (FCS) in a humidified 5% CO2 incubator at 37° C. Recombinant human chemokine proteins TECK was obtained from R&D Systems (Minneapolis, MN). ChemoTX™ chemotaxis microchambers were purchased from Neuro Probe (Gaithersburg, MD). CyQUANT™ cell proliferation kits were purchased from Molecular Probes (Eugene, Oregon). Calcium indicator dye Fluo-4 AM was purchased from Molecular Devices (Mountain View, CA).
# A serum chemotaxis assay was used to determine the efficacy of potential receptor antagonists at blocking the migration mediated through chemokine receptors, such as CCR(9). This assay was performed using the ChemoTX® microchamber system with a 5-μm pore-sized polycarbonate membrane. MOLT-4 cells were collected by centrifugation at 400×g at room temperature, then suspended at 50 million/ml in human serum, containing 50 mM HEPES (final pH of 7.2). The compound being tested or an equivalent volume of its solvent (DMSO) was then added to the cell/serum mixture at a final DMSO concentration of 0.125% (v/v), and this mixture was then incubated together at 37° C. for one hour. Separately, recombinant human TECK was diluted with chemotaxis buffer (HBSS+0.1% BSA), generally spanning a range from 0.1 nM to 500 nM, after which 29 μl of diluted chemokine was placed in the lower wells of the ChemoTX® plate. The 5-μm (pore size) polycarbonate membrane was placed onto the plate, and 20 μL of the cell/compound mixture was transferred onto each well of the membrane. The plates were incubated at 37° C. for 90 minutes, after which the polycarbonate membranes were removed and 5 μl of the DNA-intercalating agent CyQUANT (Invitrogen, Carlsbad, CA) was added to the lower wells. The amount of fluorescence, corresponding to the number of migrated cells, was measured using a Spectrafluor Plus plate reader (TECAN, San Jose, CA).
# The A2 values were calculated from the following equation, comparing the efficacy of the test compound with that of the DMSO-only control at equi-active chemokine levels: Log(A2)=log[drug(M)]−log[(A′/A)−1] where A reflects the potency of the agonist in the absence of antagonist and A′ reflects the potency of the agonist in the presence of antagonist at a given concentration of drug ([drug(M)]). In Vivo Efficacy Models for Human IBD
smiles,measurement,value
Cc1ccc2c(c1)N(c1ccc(C(=O)O)cc1)C(=O)C2(C)c1ccc(C(C)(C)C)cc1 (stereo not drawn),Chemotaxis A2,++ (500 nM > A2 ≥ 100 nM)
CC(C)(C)c1ccc(C2(C)C(=O)N(c3ccc(C(=O)O)cc3)c3ccc(Cl)cc32)cc1 (stereo not drawn),Chemotaxis A2,+++ (100 nM > A2)
CC(C)(C)c1ccc(C2(C)C(=O)N(c3cccc(C(=O)O)c3)c3cc(Cl)ccc32)cc1 (stereo not drawn),Chemotaxis A2,++ (500 nM > A2 ≥ 100 nM)
CC(C)(O)c1ccc(C2(C)C(=O)N(c3cccc(C(=O)O)c3)c3ccc(Cl)cc32)cc1 (stereo not drawn),Chemotaxis A2,++ (500 nM > A2 ≥ 100 nM)
CC(C)(C)c1ccc(C2(C)C(=O)N(c3ccc(C(=O)O)cc3F)c3ccc(Cl)cc32)cc1 (stereo not drawn),Chemotaxis A2,++ (500 nM > A2 ≥ 100 nM)
CC(C)(C)c1ccc(C2(C)C(=O)N(c3cccc(C(=O)O)c3F)c3ccc(Cl)cc32)cc1 (stereo not drawn),Chemotaxis A2,+++ (100 nM > A2)
CC(C)(F)c1ccc(C2(C)C(=O)N(c3cccc(C(=O)O)c3)c3ccc(Cl)cc32)cc1 (stereo not drawn),Chemotaxis A2,++ (500 nM > A2 ≥ 100 nM)
CC1(c2ccc(C(C)(O)C(F)(F)F)cc2)C(=O)N(c2cccc(C(=O)O)c2)c2ccc(Cl)cc21 (stereo not drawn),Chemotaxis A2,++ (500 nM > A2 ≥ 100 nM)
CC(C)(C)c1ccc(C2(C)C(=O)N(c3cccc(C(=O)O)c3)c3ccc(OC(F)(F)F)cc32)cc1 (stereo not drawn),Chemotaxis A2,+++ (100 nM > A2)
CC1(c2ccc(C3(C(F)(F)F)CC3)cc2)C(=O)N(c2cccc(C(=O)O)c2)c2ccc(Cl)cc21 (stereo not drawn),Chemotaxis A2,+++ (100 nM > A2)
CC1(c2ccc(C3(C#N)CC3)cc2)C(=O)N(c2cccc(C(=O)O)c2)c2ccc(Cl)cc21 (stereo not drawn),Chemotaxis A2,++ (500 nM > A2 ≥ 100 nM)
CC1(c2ccc(C3(C)C(=O)N(c4cccc(C(=O)O)c4)c4ccc(Cl)cc43)cc2)CC1 (stereo not drawn),Chemotaxis A2,+++ (100 nM > A2)
Cc1cc(C2(C)C(=O)N(c3cccc(C(=O)O)c3)c3ccc(Cl)cc32)ccc1OC(C)C (stereo not drawn),Chemotaxis A2,++ (500 nM > A2 ≥ 100 nM)
CC1(c2ccc(C(C)(C)C(C)(F)F)cc2)C(=O)N(c2cccc(C(=O)O)c2)c2ccc(Cl)cc21 (stereo not drawn),Chemotaxis A2,+ (20000 nM ≥ A2 ≥ 500 nM)
CC1(C)CCc2cc(C3(C)C(=O)N(c4cccc(C(=O)O)c4)c4ccc(OC(F)(F)F)cc43)ccc2O1 (stereo not drawn),Chemotaxis A2,+++ (100 nM > A2)
CC1(C)CCc2cc(C3(C)C(=O)N(c4cccc(C(=O)O)c4)c4ccc(C#N)cc43)ccc2O1 (stereo not drawn),Chemotaxis A2,+++ (100 nM > A2)
CC1(C)CCc2cc(C3(C)C(=O)N(c4cccc(C(=O)O)c4)c4ccc(C5CC5)cc43)ccc2O1 (stereo not drawn),Chemotaxis A2,+++ (100 nM > A2)
CCc1ccc2c(c1)C(C)(c1ccc3c(c1)CCC(C)(C)O3)C(=O)N2c1cccc(C(=O)O)c1 (stereo not drawn),Chemotaxis A2,+++ (100 nM > A2)
CC1(C)Cc2cc(C3(C)C(=O)N(c4cccc(C(=O)O)c4)c4ccc(Cl)cc43)ccc2O1 (stereo not drawn),Chemotaxis A2,+++ (100 nM > A2)
Cc1cc(C2(C)C(=O)N(c3cccc(C(=O)O)c3)c3ccc(Cl)cc32)ccc1C(C)(C)C (stereo not drawn),Chemotaxis A2,++ (500 nM > A2 ≥ 100 nM)
CC1(C)CCc2cc(C3(C)C(=O)N(c4cccc(C(=O)O)c4)c4cc(Cl)c(OC(F)(F)F)cc43)ccc2O1 (stereo not drawn),Chemotaxis A2,+++ (100 nM > A2)
CC1(C)CCc2cc(C3(C)C(=O)N(c4cccc(C(=O)O)c4)c4cc(Cl)c(Cl)cc43)ccc2O1 (stereo not drawn),Chemotaxis A2,+++ (100 nM > A2)
"CC1(C)CCc2cc(C3(C)C(=O)N(c4ccc(CC(=O)O)cc4)c4ccc(Cl)cc43)ccc2O1 (stereo in doubt) [2-[4-[(3R)-5-chloro-3-(2,2-dimethylchroman-6-yl)-3-methyl-2-oxo-indolin-1-yl]phenyl]acetic acid]",Chemotaxis A2,+++ (100 nM > A2)
CC(C)(C)c1ccc(C2(C)C(=O)N(c3cccc(C(=O)O)c3)c3ccc(Cl)cc32)cc1 (stereo in doubt) [3-[(3R)-3-(4-tert-butylphenyl)-5-chloro-3-methyl-2-oxo-indolin-1-yl]benzoic acid],Chemotaxis A2,+++ (100 nM > A2)
"CC1(C)CCc2cc(C3(C)C(=O)N(c4cccc(C(=O)O)c4)c4ccc(Cl)cc43)ccc2O1 (stereo in doubt) [3-[(3R)-5-chloro-3-(2,2-dimethylchroman-6-yl)-3-methyl-2-oxo-indolin-1-yl]benzoic acid]",Chemotaxis A2,+++ (100 nM > A2)
"CC1(C)CCc2cc(C3(C)C(=O)N(Cc4ccc(C(=O)O)cc4)c4ccc(Cl)cc43)ccc2O1 (stereo in doubt) [4-[[(3R)-5-chloro-3-(2,2-dimethylchroman-6-yl)-3-methyl-2-oxo-indolin-1-yl]methyl]benzoic acid]",Chemotaxis A2,+++ (100 nM > A2)
"Cc1ccc2c(c1)C(C)(c1ccc3c(c1)CCC(C)(C)O3)C(=O)N2c1ccc(C)c(C(=O)O)c1 (stereo in doubt) [5-[(3R)-3-(2,2-dimethylchroman-6-yl)-3,5-dimethyl-2-oxo-indolin-1-yl]-2-methyl-benzoic acid]",Chemotaxis A2,+++ (100 nM > A2)
"COc1ccc(N2C(=O)C(C)(c3ccc4c(c3)CCC(C)(C)O4)c3cc(Cl)ccc32)cc1C(=O)O (stereo in doubt) [5-[(3R)-5-chloro-3-(2,2-dimethylchroman-6-yl)-3-methyl-2-oxo-indolin-1-yl]-2-methoxy-benzoic acid]",Chemotaxis A2,+++ (100 nM > A2)
"Cn1nnn(Cc2ccc(N3C(=O)[C@@](C)(c4ccc5c(c4)CCC(C)(C)O5)c4cc(Cl)ccc43)cc2)c1=O [(S)-5-chloro-3-(2,2-dimethylchroman-6-yl)-3-methyl-1-(4-((4-methyl-5-oxo-4,5-dihydro-1H-tetrazol-1-yl)methyl)phenyl)indolin-2-one]",Chemotaxis A2,+++ (100 nM > A2)
"CC1(C)CCc2cc([C@]3(C)C(=O)N(c4ccc(Cn5nn[nH]c5=O)cc4)c4ccc(Cl)cc43)ccc2O1 [(S)-5-chloro-3-(2,2-dimethylchroman-6-yl)-3-methyl-1-(4-((5-oxo-4,5-dihydro-1H-tetrazol-1-yl)methyl)phenyl)indolin-2-one]",Chemotaxis A2,+++ (100 nM > A2)

# Source: patent US12139475B2, “2-oxindole compounds” (CHEMOCENTRYX, INC., priority 2016, dated 2024)
